The values below come from patent US20020169101A1, “Treatment of sexual dysfunction” (priority 1999, published 2002).

Data set [1] concerns female rat sexual proceptivity. In words: Female rat sexual proceptivity test (time investigating male vs female stimulus). Type of data set: in vivo. On the procedure:
(§1) Ovariectomised adult female Sprague Dawley rats (180-200 g, from Charles River) were housed in groups of 6 in a reversed lighting system of 12 h light:dark (lights off 7.00-19.00 h). Two weeks after ovariectomy they were used for sexual activity tests. The experiments started at least 5 h into the dark period.
Tests were carried out in a circular arena of 90 cm diameter, surrounded by a 30 cm high wall. Two small cages with wire-mesh front (15×15 cm) are fixed into the wall such that the front of the cage is <> with the wall and the 2 cages are opposite each other. They contained two stimuli animals: an intact sexually experienced male and a receptive female (ovariectomised, primed with 5 μg oestradiol benzoate dissolved in corn oil and injected subcutaneously 48 hours before the test and with 0.5 mg of progesterone four hours before the test). Sexually naive test and control animals were used. Forty eight hours before the tests, both the test and control animals were primed with 5 μg oestradiol benzoate. For animals used as positive controls, progesterone (0.5 mg/0.1 ml) was dissolved in corn oil and administered subcutaneously (s.c.), 4 h before the test. Test and control animals were introduced one at a time for 10 minute periods into the arena. During the 10 min test, the time that the test or positive control animal spent investigating each stimulus animal was noted. The arena was thoroughly cleaned between animals. The position of the male/female stimuli boxes was randomised between animals, in order to avoid place preference. The difference in the percentage of time spent investigating the male minus the female stimuli was calculated, out of the total time spent investigating stimuli animals.
Compound (1) was dissolved in 100% β-cyclodextrin and then diluted with saline to a final solution of 50% 2-hydroxypropyl-β-cyclodextrin. It was administered intraperitoneally (i.p.) at doses of 3 and 10 mg/kg, in a dosing volume of 1 ml/kg, 1 h before tests. Progesterone (0.5 mg/0.1 ml) was dissolved in corn oil and administered subcutaneously (s.c.), 4 h before test, as a positive control.
Ovariectomised adult female Sprague Dawley rats (180-200 g) were housed in groups of 5 in a reversed lighting system of 12 h light:dark (lights off 5.00-17.00 h). They were used for the experiments at least two weeks after ovariectomy. Forty eight hours before tests, the animals were primed with oestradiol benzoate (5 μg/[…] in corn oil, s.c.). On day 1, progesterone (0.5 mg/0.1 ml, in corn oil, s.c.) was administered to one of the groups 4 h before tests, as a positive control. Compound (1) (15 mg/kg, i.p.) was administered in 50% 2-hydroxypropyl-β-cyclodextrin, 1 h before tests. The test lasted 10 minutes and was carried out as described before. The difference in the percentage of time spent investigating the male minus the female stimuli was calculated, out of the total time spent investigating stimuli animals. Animals were submitted to a test on day 1 and on day 15. From day 2 to 14 the Compound (1) group received a daily injection of the compound (15 mg/kg, i.p.), while both the vehicle and the progesterone groups received an injection of vehicle. On day 15 the test took place again, as described for day 1.
Ovariectomised female rats (Sprague Dawley, obtained from Charles River, UK) were stereotaxically implanted (coordinates 0.89 mm behind Bregma, 1.3 mm lateral and 2.5 mm vertical) with stainless steel cannulae (6 mm long, O.D. 0.75 mm), held in place with dental cement. Animals were housed in groups of three and returned to a reversed lighting system of 12 h light:dark (lights off 5.00-17.00 h). Correct placement of the cannulae was assessed post-mortem. Rats were used for tests two weeks after ovariectomy (one week after cannulation). The experiments started at least 5 h into the dark period. […]

Data set [2] concerns female rat sexual proceptivity (NMB-inhibited). Nature of the data set: Inhibition of female rat proceptivity by i.c.v. NMB and its antagonism. Type of data set: in vivo. Particulars: progesterone 0.5 mg s.c. 4 h; NMB 100 ng i.c.v. 10 min before test in progesterone-treated rats; Compound (1) 15 mg/kg i.p. 1 h before NMB (FIG. 5). On the procedure:
Ovariectomised female rats (Sprague Dawley, obtained from Charles River, UK) were stereotaxically implanted (coordinates 0.89 mm behind Bregma, 1.3 mm lateral and 2.5 mm vertical) with stainless steel cannulae (6 mm long, O.D. 0.75 mm), held in place with dental cement. Animals were housed in groups of three and returned to a reversed lighting system of 12 h light:dark (lights off 5.00-17.00 h). Correct placement of the cannulae was assessed post-mortem. Rats were used for tests two weeks after ovariectomy (one week after cannulation). The experiments started at least 5 h into the dark period. Forty eight hours before tests, the animals were primed with 5 μg oestradiol benzoate (OB) (s.c, in corn oil) and adapted to the apparatus (in the absence of stimuli animals) for 10 min on 2 consecutive days prior testing. The 10 min test was carried out as previously described. The difference in the percentage of time spent investigating male minus female was calculated, out of the total time spent investigating stimuli.
Progesterone (Prog, 0.5 mg/0.1 ml) was dissolved in corn oil and administered subcutaneously (s.c.), 4 h before test, to induce proceptive behaviour. Compound (1) (15 mg/kg, i.p.) was dissolved in 50% 2-hydroxypropyl-β-cyclodextrin in saline and administered 1 h before the i.c.v. administration. Neuromedin B was obtained from Bachem, UK. It was dissolved in isotonic saline and administered i.c.v. over a 30 sec period, with the aid of a pump set to deliver a flow of 10 μl/min, 10 min before tests. The dosing volume was 5 μl/rat. Each rat received a total amount of 100 ng.

The nature of data set [3]: Plasma sexual hormone levels in ovariectomised female rats (radioimmunoassay). Type of data set: in vivo, rat. As to conditions: Compound (1) 3-10 mg/kg i.p. 1 h, progesterone 0.5 mg s.c. 4 h before blood collection. On the procedure: Ovariectomised adult female Sprague Dawley rats (180-200 g) were housed in groups of 6 in a reversed lighting system of 12 h light:dark (lights off 7.00-19.00 h). They were used for the experiments at least two weeks after ovariectomy. Forty eight hours before tests, the animals were primed with oestradiol benzoate (5 μg/0.1 ml in corn oil, s.c.). Progesterone (0.5 mg/0.1 ml, in corn oil, s.c.) was administered 4 h before blood collection, as a positive control. Compound (1) (3-10 mg/kg, i.p.) was administered in 50% 2-hydroxypropyl-β-cyclodextrin, 1 h prior to blood collection. Blood was collected from the trunk, after decapitation. It was immediately centrifuged (3500 r.p.m., 4° C., 5 min) and the plasmas frozen until assayed for hormonal content, using commercially available radioimmunoassay kits (^125I-labelled hormones) for oestradiol, progesterone, LH, FSH and prolactin.

For another data set, the target named is T1, human NMB receptor (BB1) (Homo sapiens, UniProt P28336).
T1 construct: expressed in transfected cells; membranes prepared from the cells
T1 sequence (P28336 whole entry): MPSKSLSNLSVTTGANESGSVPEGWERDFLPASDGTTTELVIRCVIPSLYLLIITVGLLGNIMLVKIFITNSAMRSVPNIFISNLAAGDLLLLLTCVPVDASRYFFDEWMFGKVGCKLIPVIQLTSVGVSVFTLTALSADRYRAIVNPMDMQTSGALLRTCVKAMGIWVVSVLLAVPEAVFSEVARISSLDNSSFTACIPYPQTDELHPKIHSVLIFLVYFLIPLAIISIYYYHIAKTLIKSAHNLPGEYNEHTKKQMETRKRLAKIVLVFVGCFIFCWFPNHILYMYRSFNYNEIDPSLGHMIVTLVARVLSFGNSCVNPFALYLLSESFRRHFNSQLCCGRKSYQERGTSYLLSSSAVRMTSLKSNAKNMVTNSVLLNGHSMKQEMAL
Nature of the data set: BB1 binding assay ([125I][Tyr4]bombesin displacement, CHO-K1 membranes). As to conditions: Table 1, human NMB receptor binding affinity; Ki from IC50 by Cheng-Prusoff; read-out: NMB Ki. A digest of the protocol: (§2)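 Membranes from CHO-K1 cells stably expressing human NMB (BB1) or GRP (BB2) receptors, in 50 mM Tris-HCl pH 7.4 with BSA and protease inhibitors, incubated with [125I][Tyr4]bombesin (<0.1 nM) for 60 min (BB1) or 90 min (BB2). Nonspecific binding defined with 1 μM bombesin; filtration and gamma counting; IC50 converted to Ki by Cheng-Prusoff.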

The next data set addresses T2, human GRP receptor (BB2) (Homo sapiens, UniProt P30550).
T2 construct: expressed in transfected cells; membranes prepared from the cells
In words: BB2 binding assay ([125I][Tyr4]bombesin displacement, CHO-K1 membranes). As to conditions: Table 1, human GRP receptor binding affinity; Ki from IC50 by Cheng-Prusoff; read-out: GRP Kj. In a few lines: as §2

Data set [4] concerns female rat sexual receptivity. In words: Female rat sexual receptivity test (lordosis quotient). Type of data set: in vivo. As to conditions: for lordosis quotient (LQ) vs LQ before administration: Compound (2) 10-100 mg/kg oral in PEG200, 1 h, quinelorane 6.25 μg/kg s.c., 90 min (FIG. 21). Here is the method:
as §1
Compound (1) was dissolved in 100% β-cyclodextrin and then diluted with saline to a final solution of 50% 2-hydroxypropyl-β-cyclodextrin. It was administered intraperitoneally (i.p.) at a dose of 10 mg/kg, in a dosing volume of 1 ml/kg. Quinelorane (6.25 μg/kg) was dissolved in water and administered s.c. as positive control. Forty eight hours before testing, ovariectomised female rats (as described above), were primed with 5 μg oestradiol benzoate dissolved in corn oil and injected subcutaneously. […] The females were placed with a series of vigorous male rats and subjected to 10 mounts.
The lordotic response of the animal was recorded and expressed as a percentage of the mounts (i.e. lordosis quotient, LQ), as previously described. Animals showing LQ<20 were considered non-receptive and were included in the study. Each rat was tested prior to administration of the compound and then tested similarly post-injection. The pre-treatment times were 1 h for Compound (1) and vehicle (50% β-cyclodextrin, i.p.) or 90 min for quinelorane.
The above compound was dissolved in PEG200 vehicle and administered orally. Quinelorane dihydrochloride (LY 163,502, 6.25 μg/kg) was dissolved in water and administered subcutaneously (s.c.), as a positive control. Both compounds were administered in a 1 ml/kg volume.
Forty eight hours before tests, the animals were primed with 5 μg oestradiol benzoate (Sigma Chemical. Co. Ltd., UK) dissolved in corn oil and injected subcutaneously. The females were placed with a series of vigorous male rats and subjected to 10 mounts. The lordotic response of the animal was recorded and expressed as a percentage of the mounts (i.e. lordosis quotient, LQ). […] Animals showing higher LQ were not included in the study. […]

T2 sequence (P30550 whole entry): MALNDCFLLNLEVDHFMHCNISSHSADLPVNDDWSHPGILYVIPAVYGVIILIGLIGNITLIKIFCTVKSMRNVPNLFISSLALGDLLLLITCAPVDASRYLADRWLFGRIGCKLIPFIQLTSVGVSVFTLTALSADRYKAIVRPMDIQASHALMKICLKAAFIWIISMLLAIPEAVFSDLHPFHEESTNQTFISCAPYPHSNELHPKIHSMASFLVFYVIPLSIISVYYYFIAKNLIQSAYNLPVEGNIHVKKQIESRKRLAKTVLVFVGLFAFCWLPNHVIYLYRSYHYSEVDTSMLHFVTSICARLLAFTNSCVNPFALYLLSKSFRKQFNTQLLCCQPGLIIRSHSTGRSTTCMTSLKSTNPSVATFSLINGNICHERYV

`CC(=O)[C@H]1CC[C@H]2[C@@H]3CCC4=CC(=O)CC[C@]4(C)[C@H]3CC[C@]12C` [progesterone, reference compound]: the “proceptivity on day 1 vs vehicle” value in data set [1] (Compound (1) 15 mg/kg i.p. 1 h before test, progesterone 0.5 mg s.c. 4 h before test (FIG. 3)) is reported as “stimulatory effect on proceptivity”. In data set [2], the “proceptivity (percentage of time investigating male minus female stimulus)” value is listed as “increased the percentage of time spent investigating the male stimulus”. In data set [3] (vs vehicle (FIG. 6)), the “plasma levels of progesterone” value is “significant increase in the progesterone plasma levels”. In data set [3] (vs vehicle (FIG. 9)), the “plasma levels of LH” value is on record as “significant decrease in LH plasma levels”.
Broadly, the melting point is the temperature of the solid-liquid transition. Regarding `COc1ccc(C2(CNC(=O)[C@](C)(Cc3c[nH]c4ccccc34)Nc3nc(-c4ccc([N+](=O)[O-])cc4)co3)CCCCC2)nc1` [Example 9, (S)-3-(1H-Indol-3-yl)-N-[1-(5-methoxy-pyridin-2-yl)-cyclohexylmethyl]-2-methyl-2-[4-(4-nitro-phenyl)-oxazol-2-ylamino]-propionamide], the melting point lay in the range of 100 to 105 °C. The Ki on human NMB receptor (BB1) worked out at 4 nM. Besides, the Ki on human GRP receptor (BB2) stood at 24 nM. In addition, the “percentage of time spent investigating the male stimulus” value in data set [1] (oral, 30-100 mg/kg in PEG 200, 1 h before test (FIG. 19)) is “dose-dependently (30-100) increased the percentage of time spent investigating the male stimulus”. The “percentage of time spent investigating the male stimulus” value in data set [1] (p.o., 3-30 mg/kg in 0.5% methyl cellulose, 1 h before test (FIG. 20)) is “dose-dependently (3-30 mg/kg) increased the percentage of time spent investigating the male stimulus”. For the same molecule, the “lordosis quotient (LQ) vs LQ before administration” value in data set [4] is on record as “dose-dependently (10-100 mg/kg) increased the LQ”. The “MED for increase of lordosis quotient (LQ)” value in data set [4] (single oral administration, 10-100 mg/kg in PEG200, 1 h after administration) worked out at 100 mg/kg.
As for neuromedin B [NMB], in data set [2], the “proceptivity (percentage of time investigating male minus female stimulus)” value was “significantly reduced proceptivity”.
As to `CCCN1CCC[C@@H]2Cc3nc(N)ncc3C[C@H]21` [quinelorane, reference compound], the “lordosis quotient (LQ) vs LQ before administration” value in data set [4] is given as “significantly (P<0.01) increased the LQ”.
